Results: patent US4442214A, “Thermo-stable micro-organism” (Development Finance Corporation of New Zealand, priority 1979, dated 1984)
Like-named read-outs stand apart in the source and are kept apart here.

Experiments:
[1] = test system: NADH and succinate oxidases; test: Oxidase system activities (oxygen uptake) with inhibitors; assay type: biochemical; details: THERMUS T-351 oxidase systems
Protocol: Oxygen uptake was measured polarographically using a Rank electrode (Rank Brothers, Bottisham, Cambridge, England). The reaction mixture consisted of 0.1 M KH2 PO4 /Na2 HPO4 buffer pH 7.0, a suitable amount of membrane particle protein, 50 μmol of substrate (except in the case of NADH were 5 μmol were used), in a final volume of 2.5 ml.
Buffers were equilibrated at the desired temperature with sparged air for 30 minutes.
Particles were equilibrated in the electrode for 2 minutes prior to measurement of oxygen uptake. Rates were measured over the first minute.

CALDOLYSIN = test: Response of CALDOLYSIN to inhibitors; assay type: biochemical, THERMUS T-351
[2] = 80° C.; published data; cited from earlier work

Row | Molecule | relative effect on NADH oxidase and succinate oxidase [1] | further results
1 | CCCCCCCc1cc(O)c2ccccc2[n+]1[O-] [2-heptyl-4-hydroxyquinoline-N-oxide] | more effective inhibitors of succinate oxidase | 
2 | c1ccc(-c2ccnc3c2ccc2c(-c4ccccc4)ccnc23)cc1 [Bathophenanthroline] | more effective inhibitors of succinate oxidase | 
3 | O=C(O)CN(CCOCCOCCN(CC(=O)O)CC(=O)O)CC(=O)O [EGTA] |  | % Inhibitor of Activity (CALDOLYSIN; inhibitor 1 mM): 18%; % Inhibitor of Activity (CALDOLYSIN; inhibitor 10 mM): 45%
4 | O=C(O)CI [Iodoacetic acid] |  | % Inhibitor of Activity (CALDOLYSIN): 60%
5 | O=S(=O)(F)Cc1ccccc1 [Phenylmethyl Sulfonyl Fluoride] |  | % Inhibitor of Activity (CALDOLYSIN; inhibitor 10 mM): 10%
6 | C=C(C)[C@H]1Cc2c(ccc3c2O[C@@H]2COc4cc(OC)c(OC)cc4[C@@H]2C3=O)O1 [Rotenone] | more effect on the NADH oxidase | 
7 | CCC1(CCC(C)C)C(=O)NC(=O)NC1=O [amytal] | affected NADH and succinate oxidases equally | 
8 | antimycin A | more effective inhibitors of succinate oxidase | 
9 | THERMOLYSIN: thermophilic protease from BACILLUS THERMOPROTEOLYTICUS, published data (protein, UniProt P00800 233-548, looked up) Thermolysin: ITGTSTVGVGRGVLGDQKNINTTYSTYYYLQDNTRGNGIFTYDAKYRTTLPGSLWADADNQFFASYDAPAVDAHYYAGVTYDYYKNVHNRLSYDGNNAAIRSSVHYSQGYNNAFWNGSQMVYGDGDGQTFIPLSGGIDVVAHELTHAVTDYTAGLIYQNESGAINEAISDIFGTLVEFYANKNPDWEIGEDVYTPGISGDSLRSMSDPAKYGDPDHYSKRYTGTQDNGGVHINSGIINKAAYLISQGGTHYGVSVVGIGRDKLGKIFYRALTQYLTPTSNFSQLRAAAVQSATDLYGSTSQEVASVKQAFDAVGVK |  | HALF-LIFE [2]: 1 h
